How the values were obtained:
NaV1.7 = target: T1, NaV1.7 (Homo sapiens, UniProt Q15858); assay: Automated patch clamp (Qube 384), external block of NaV1.7; format: cell-based; conditions: IC50, compound in external solution, HEK293 cells, read-out: Nav1.7 Extracellular Inhibition
T1 construct: expressed in transfected cells; host or cells: HEK293 (tetracycline-inducible)
Procedure: NaV1.7 was expressed in HEK293 cells upon induction with tetracycline. Cells were cultured in DMEM containing 10% dialyzed Fetal Bovine Serum (VWR, Radnor, Pa.), 1% Glutamax (VWR, Radnor, Pa.), 1% Penicillin-Streptomycin (VWR, Radnor, Pa.), 100 mg/L Hygromycin (Thermo Fisher Scientific, Waltham, Mass. and 5 mg/L Blasticidin (Alfa Aesar, Haverhill, Mass.). Cells were grown and maintained at 37° C. in a humidified environment containing 10% CO2 in air. Cells were detached from the culture flask for passage and harvested using 0.05% Trypsin-EDTA (Thermo Fisher Scientific, Waltham, Mass.). To induce NaV1.7, cells were induced with tetracycline (0.1-1 μg/mL, IBI Scientific, Peosta, Iowa) the day before recording.
Before experiments, cells were washed with DPBS (VWR, Radnor, Pa.), digested with Detachin (VWR Radnor, Pa.) and then triturated 10 times in CHO Serum-Free Media (VWR Radnor, Pa.) to resuspend the cells and to break apart cell aggregates. Cells were counted and the final concentration was set at 2-5 million cells per mL.
The intracellular solution contained the following: 140 mM CsF, 1 mM/5 mM EGTA/CsOH, 10 mM HEPES, 10 mM NaCl, adjusted to pH 7.3 with CsOH, and osmolality to 320 with OSM solution. The external solution contained the following: 145 mM NaCl, 4 mM KCl, 1 mM MgCl2, 2 mM CaCl2), 10 mM HEPES, 10 mM Glucose, adjusted to pH 7.4 with CsOH and osmolality to 305 with OSM solution. The OSM solution was a normal Ringer solution containing (in mM) NaCl 155, HEPES 10, sucrose, KCl 3.5, CaCl2) 1.5, MgCl2 1 adjusted to pH 7.4 with NaOH. All chemicals are from Sigma-Aldrich, St. Louis, Mo. In order to test the degree of internal block by test compounds, the compounds were dissolved in internal solution at the indicated test concentration. […] In order to test the degree of external block by test compounds the compounds were dissolved in external solution at the indicated test concentration.
Automated Patch Clamps were performed on Qube 384 (Sophion Bioscience, Woburn Mass.) with multihole Qchips at a temperature setting of 22 degrees. The whole cells configuration was formed with default Qube seal and break-in parameter. The membrane potential was held at −100 mV before the voltage protocol began. Two voltage protocols were followed.
Step 1: Cells were held at −100 mV with a depolarized pulse to −20 mV for 10 ms, the interval was set at 5 s. Currents were corrected by default leak subtraction from every pulse. The duration was set at 5 mins.
Step 2: Cells were held at −100 mV with a depolarized pulse to −20 mV for 10 ms. The frequency was 5 Hz. Currents were corrected by leak subtraction calculated before step 2. The duration was set at 4 mins.
After Step 2, the external solution was changed with solutions containing test compounds. Qchips were held at −100 mV without pulsing. The total solution switching time was 8 minutes. After the external solution exchange, cells were recorded using the same procedure as step 2 for 10 minutes.
Data analysis was performed by Sophion Analyzer. Data were corrected with control cells (Non-Drug). The IC50 data were plotted with DR-plots/Hill function (a dose-response plot with a Hill fit). Representative examples of the invention were tested for extracellular inhibition of NaV 1.7 in the automated patch clamp assay. Activity Range is reported as IC50: “++++” ([…], “+++” (1-3 μM), “++” ([…]) or “+” (>10 μM). The results are presented below.

[1] = PAMPA membrane permeability assay; format: in vitro ADME; conditions: permeability coefficient, pH 7.4 buffer, GIT lipid, 4 hours incubation
Outline: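 Passive diffusion across a GIT-lipid-painted artificial membrane at pH 7.4, with a 50 uM donor stock diluted from DMSO and a 4 h incubation. UV spectra of the donor, acceptor and reference plates were read, and the permeability coefficient was calculated from the AUCs, in 10^−6 cm/s.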

T1 sequence (Q15858 whole entry): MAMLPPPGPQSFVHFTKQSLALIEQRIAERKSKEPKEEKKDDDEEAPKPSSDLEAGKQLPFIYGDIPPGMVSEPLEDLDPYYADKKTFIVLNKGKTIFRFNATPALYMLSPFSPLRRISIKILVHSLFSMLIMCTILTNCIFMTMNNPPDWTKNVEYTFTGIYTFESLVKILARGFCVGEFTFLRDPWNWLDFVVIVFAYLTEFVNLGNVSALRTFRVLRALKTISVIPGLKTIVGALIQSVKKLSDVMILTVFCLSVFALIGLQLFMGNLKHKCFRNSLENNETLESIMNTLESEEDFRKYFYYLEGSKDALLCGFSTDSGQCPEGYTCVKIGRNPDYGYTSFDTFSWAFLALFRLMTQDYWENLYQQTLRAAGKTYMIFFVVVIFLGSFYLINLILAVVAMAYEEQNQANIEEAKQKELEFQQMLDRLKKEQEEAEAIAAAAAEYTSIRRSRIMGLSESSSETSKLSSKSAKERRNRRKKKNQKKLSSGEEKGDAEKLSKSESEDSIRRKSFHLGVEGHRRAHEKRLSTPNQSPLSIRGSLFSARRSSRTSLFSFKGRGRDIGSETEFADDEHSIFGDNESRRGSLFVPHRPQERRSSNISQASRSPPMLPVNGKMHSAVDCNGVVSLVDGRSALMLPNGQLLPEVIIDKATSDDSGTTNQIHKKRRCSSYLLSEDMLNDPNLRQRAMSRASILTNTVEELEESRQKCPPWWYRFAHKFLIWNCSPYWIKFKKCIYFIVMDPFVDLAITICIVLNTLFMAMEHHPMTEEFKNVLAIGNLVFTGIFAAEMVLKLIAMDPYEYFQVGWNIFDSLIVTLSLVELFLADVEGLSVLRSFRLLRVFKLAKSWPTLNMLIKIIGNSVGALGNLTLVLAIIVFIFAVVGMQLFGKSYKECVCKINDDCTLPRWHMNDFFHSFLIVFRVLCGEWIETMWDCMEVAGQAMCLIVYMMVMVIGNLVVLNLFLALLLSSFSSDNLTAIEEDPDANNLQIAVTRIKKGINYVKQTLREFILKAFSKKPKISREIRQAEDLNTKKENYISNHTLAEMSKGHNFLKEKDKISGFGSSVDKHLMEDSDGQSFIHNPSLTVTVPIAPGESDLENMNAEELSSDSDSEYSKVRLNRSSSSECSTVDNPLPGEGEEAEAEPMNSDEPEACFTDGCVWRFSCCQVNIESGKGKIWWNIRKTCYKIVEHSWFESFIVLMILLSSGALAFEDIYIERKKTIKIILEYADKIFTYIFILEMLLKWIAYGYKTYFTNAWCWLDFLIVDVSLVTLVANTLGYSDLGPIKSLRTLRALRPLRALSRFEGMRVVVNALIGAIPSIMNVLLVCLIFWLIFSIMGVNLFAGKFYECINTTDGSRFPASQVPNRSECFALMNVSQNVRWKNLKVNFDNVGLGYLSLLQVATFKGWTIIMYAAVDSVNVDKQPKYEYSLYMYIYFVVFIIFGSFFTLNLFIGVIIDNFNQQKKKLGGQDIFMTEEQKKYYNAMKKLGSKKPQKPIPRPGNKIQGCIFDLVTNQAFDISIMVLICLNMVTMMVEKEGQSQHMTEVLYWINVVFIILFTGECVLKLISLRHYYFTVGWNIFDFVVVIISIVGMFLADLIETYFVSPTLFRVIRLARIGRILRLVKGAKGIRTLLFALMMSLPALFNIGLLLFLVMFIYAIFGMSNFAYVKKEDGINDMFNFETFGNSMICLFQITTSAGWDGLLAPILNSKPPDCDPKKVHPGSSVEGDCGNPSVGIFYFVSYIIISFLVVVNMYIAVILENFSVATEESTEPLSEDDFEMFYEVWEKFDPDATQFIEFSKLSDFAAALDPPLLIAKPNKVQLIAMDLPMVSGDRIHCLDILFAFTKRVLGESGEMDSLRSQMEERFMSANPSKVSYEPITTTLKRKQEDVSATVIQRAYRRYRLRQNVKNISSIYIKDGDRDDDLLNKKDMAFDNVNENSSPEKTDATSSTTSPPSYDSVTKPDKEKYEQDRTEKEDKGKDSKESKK

SMILES | IC50 (NaV1.7) [µM] | PAMPA (10^−6 cm/s) [1]
Cc1cccc(C)c1NC(=O)C[N+]1(Cc2ccccc2)CCCC(C(=O)N2CCCCC2)C1 (centres unmarked) [Compound 63A] | 3 to 10 | + (“+” (<0.1 10^−6 cm/s))
CCCCNc1ccc(NC(=O)C[N+]2(Cc3ccccc3)CCCCCC2)cc1.O=C[O-] [Compound 41A, 1-benzyl-1-(2-((4-(butylamino)phenyl)amino)-2-oxoethyl) azepan-1-ium formate] | > 10 | + (“+” (<0.1 10^−6 cm/s))
CC[N+](CC)(CCCc1ccccc1)CC(=O)Nc1c(C)cccc1C.[Br-] [Compound 86A, N-(2-((2,6-dimethylphenyl)amino)-2-oxoethyl)-N, N-diethyl-3-phenylpropan-1-aminium bromide] | > 10 | + (“+” (<0.1 10^−6 cm/s))
COC(=O)c1ccc(C[N+]2(CC(=O)Nc3c(C)cccc3C)CCCCC2)cc1.[Br-] [Compound 36A, 1-(2-((2,6-dimethylphenyl)amino)-2-oxoethyl)-1-(4-(methoxycarbonyl)benzyl) piperidin-1-ium bromide] | > 10 | + (“+” (<0.1 10^−6 cm/s))

The remaining lines, values ahead:

IC50 (NaV1.7) [µM] | PAMPA (10^−6 cm/s) [1] | SMILES
> 10 | +++ (“+++” (2.0-10.010^−6 cm/s)) | CNC(=O)C1CCC[N+](CC(=O)Nc2c(C)cccc2C)(Cc2ccccc2)C1 (centres unmarked) [Compound 55A]
> 10 | + (“+” (<0.1 10^−6 cm/s)) | CCN(CC)C(=O)C1CCC[N+](CC(=O)Nc2c(C)cccc2C)(Cc2ccccc2)C1 (centres unmarked) [Compound 66A]
1 to 3 | + (“+” (<0.1 10^−6 cm/s)) | CCCOC(=O)C1CCC[N+](CC(=O)Nc2c(C)cccc2C)(Cc2ccccc2)C1.[Br-] (centres unmarked) [Compound 47A, 1-benzyl-1-(2-((2,6-dimethylphenyl)amino)-2-oxoethyl)-3-(propoxycarbonyl) piperidin-1-ium bromide]

Reference: patent US11603355B2, “Charged ion channel blockers and methods for use” (Nocion Therapeutics, Inc., priority 2019, dated 2023)
